# In ChEMBL document CHEMBL1240444, “Aconitum and Delphinium alkaloids of curare-like activity. QSAR analysis and molecular docking of alkaloids into AChBP” (Eur J Med Chem, 2010):
# Tests used:
# [1] = Selectivity ratio of binding affinity for alpha7 nAChR to alpha3beta2
# [2] = Selectivity ratio of binding affinity for alpha7 nAChR to alpha4beta2 nAChR
# [3] = Selectivity ratio of binding affinity for alpha7 nAChR to muscle nAChR; type: tissue-based; details: Muscle tissue
smiles,measurement,setting,value
CCN1C[C@]2(COC(=O)c3ccccc3N3C(=O)C[C@H](C)C3=O)CC[C@H](OC)[C@@]34[C@@H]5C[C@H]6[C@H](OC)[C@@H]5[C@](O)(C[C@@H]6OC)[C@](O)([C@@H](OC)[C@H]23)[C@@H]14,Ratio,[1],100
same,Ratio,[2],1000
same,Ratio,[3],10000
